Results: ChEMBL document CHEMBL1649234, “Antimicrobial activities of piperacillin-tazobactam against Haemophilus influenzae isolates, including beta-lactamase-negative ampicillin-resistant and beta-lactamase-positive amoxicillin-clavulanate-resistant isolates, and mutations in their quinolone resistance-determining regions” (2009)
≈ marks a conversion by molar mass, not a printed value.

Legend:
Type in all cases: functional
[1] = test system: Haemophilus influenzae; test: Antimicrobial activity against beta-lactamase negative ampicillin-resistant Haemophilus influenzae assessed as susceptible isolates by broth microdilution method
[2] = test system: Haemophilus influenzae; test: Antimicrobial activity against beta-lactamase positive (amoxicillin)clavulanate-resistant Haemophilus influenzae by broth microdilution method
[3] = test system: Haemophilus influenzae; test: Antimicrobial activity against beta-lactamase positive (amoxicillin)clavulanate-resistant Haemophilus influenzae assessed as susceptible isolates by broth microdilution method
[4] = test system: Haemophilus influenzae; test: Antimicrobial activity against beta-lactamase negative ampicillin-resistant -Haemophilus influenzae by broth microdilution method
[5] = test system: Haemophilus influenzae; test: Antimicrobial activity against beta-lactamase negative ampicillin-susceptible Haemophilus influenzae harboring […] mutant gene by broth microdilution method in presence of beta-lactamase inhibitor clavulanic acid
[6] = test system: Haemophilus influenzae; test: Antimicrobial activity against beta-lactamase-positive ampicillin-resistant Haemophilus influenzae harboring […] mutant gene assessed as susceptible isolates by broth microdilution method in presence of beta-lactamase inhibitor clavulanic acid
[7] = test system: Haemophilus influenzae; test: Antimicrobial activity against beta-lactamase-positive ampicillin-resistant Haemophilus influenzae harboring fst1 mutant gene by broth microdilution method in presence of beta-lactamase inhibitor clavulanic acid
[8] = test system: Haemophilus influenzae; test: Antimicrobial activity against beta-lactamase negative ampicillin-resistant Haemophilus influenzae by broth microdilution method in presence of beta-lactamase inhibitor clavulanic acid
[9] = test system: Haemophilus influenzae; test: Antimicrobial activity against beta-lactamase negative ampicillin-susceptible Haemophilus influenzae harboring […] mutant gene assessed as susceptible isolates by broth microdilution method in presence of beta-lactamase inhibitor clavulanic acid
[10] = test system: Haemophilus influenzae; test: Antimicrobial activity against beta-lactamase negative ampicillin-resistant Haemophilus influenzae assessed as susceptible isolates by broth microdilution method in presence of beta-lactamase inhibitor clavulanic acid
[11] = test system: Haemophilus influenzae; test: Antimicrobial activity against beta-lactamase positive (amoxicillin)clavulanate-resistant Haemophilus influenzae assessed as susceptible isolates by broth microdilution method in presence of beta-lactamase inhibitor clavulanic acid
[12] = test system: Haemophilus influenzae; test: Antimicrobial activity against beta-lactamase positive (amoxicillin)clavulanate-resistant Haemophilus influenzae by broth microdilution method in presence of beta-lactamase inhibitor clavulanic acid
[13] = test system: Haemophilus influenzae; test: Antimicrobial activity against beta-lactamase-positive ampicillin-resistant Haemophilus influenzae harboring fst1 mutant gene assessed as susceptible isolates by broth microdilution method
[14] = test system: Haemophilus influenzae; test: Antimicrobial activity against beta-lactamase negative ampicillin-susceptible Haemophilus influenzae harboring […] mutant gene by broth microdilution method
[15] = test system: Haemophilus influenzae; test: Antimicrobial activity against beta-lactamase negative ampicillin-susceptible Haemophilus influenzae harboring […] mutant gene assessed as susceptible isolates by broth microdilution method
[16] = test system: Haemophilus influenzae; test: Antimicrobial activity against beta-lactamase positive (amoxicillin)clavulanate-resistant Haemophilus influenzae assessed as susceptible isolates by broth microdilution method in presence of beta-lactamase inhibitor Sulbactam
[17] = test system: Haemophilus influenzae; test: Antimicrobial activity against beta-lactamase negative ampicillin-resistant Haemophilus influenzae assessed as susceptible isolates by broth microdilution method in presence of beta-lactamase inhibitor Sulbactam
[18] = test system: Haemophilus influenzae; test: Antimicrobial activity against beta-lactamase negative ampicillin-susceptible Haemophilus influenzae harboring […] mutant gene assessed as susceptible isolates by broth microdilution method in presence of beta-lactamase inhibitor Sulbactam
[19] = test system: Haemophilus influenzae; test: Antimicrobial activity against beta-lactamase-positive ampicillin-resistant Haemophilus influenzae harboring fst1 mutant gene by broth microdilution method
[20] = test system: Haemophilus influenzae; test: Antimicrobial activity against beta-lactamase-positive ampicillin-resistant Haemophilus influenzae harboring […] mutant gene assessed as susceptible isolates by broth microdilution method in presence of beta-lactamase inhibitor Sulbactam
[21] = test system: Haemophilus influenzae; test: Antimicrobial activity against beta-lactamase negative ampicillin-resistant Haemophilus influenzae by broth microdilution method in presence of beta-lactamase inhibitor Sulbactam
[22] = test system: Haemophilus influenzae; test: Antimicrobial activity against beta-lactamase-positive ampicillin-resistant Haemophilus influenzae harboring fst1 mutant gene by broth microdilution method in presence of beta-lactamase inhibitor Sulbactam
[23] = test system: Haemophilus influenzae; test: Antimicrobial activity against beta-lactamase positive (amoxicillin)clavulanate-resistant Haemophilus influenzae by broth microdilution method in presence of beta-lactamase inhibitor Sulbactam
[24] = test system: Haemophilus influenzae; test: Antimicrobial activity against beta-lactamase negative ampicillin-susceptible Haemophilus influenzae harboring […] mutant gene by broth microdilution method in presence of beta-lactamase inhibitor Sulbactam

## C[C@@H](O)[C@H]1C(=O)N2C(C(=O)O)=C(SCCNC=N)C[C@H]12 [IMIPENEM ANHYDROUS]
[1]
  Activity: 96%
[2]
  MIC50: 2 µg/mL
  MIC90: 2 µg/mL
[3]
  Activity: 98%
[4]
  MIC50: 1 µg/mL (≈ 3.34 µM)
  MIC90: 4 µg/mL (≈ 13.4 µM)

## C[C@@H](O)[C@H]1C(=O)N2C(C(=O)O)=C(S[C@@H]3CN[C@H](C(=O)N(C)C)C3)[C@H](C)[C@H]12 [MEROPENEM]
[1]
  Activity: 99%
[2]
  MIC50: 0.25 µg/mL
  MIC90: 0.5 µg/mL
[3]
  Activity: 100%
[4]
  MIC50: 0.25 µg/mL (≈ 0.652 µM)
  MIC90: 0.5 µg/mL (≈ 1.3 µM)

## CC1(C)S[C@@H]2[C@H](NC(=O)[C@H](N)c3ccc(O)cc3)C(=O)N2[C@H]1C(=O)O [AMOXICILLIN]
[5]
  MIC50: 0.5 µg/mL
  MIC90: 1 µg/mL
[6]
  Activity: 100%
[7]
  MIC: 0.5 µg/mL
  MIC50: 0.5 µg/mL
  MIC90: 1 µg/mL
[8]
  MIC50: 8 µg/mL
  MIC90: 8 µg/mL
[9]
  Activity: 100%
[10]
  Activity: 27%
[11]
  Activity: 0%
[12]
  MIC: 8 µg/mL
  MIC50: 8 µg/mL
  MIC90: 8 µg/mL

## CC1(C)S[C@@H]2[C@H](NC(=O)[C@H](N)c3ccccc3)C(=O)N2[C@H]1C(=O)O [AMPICILLIN]
[13]
  Activity: 0%
[1]
  Activity: 0%
[14]
  MIC50: 0.25 µg/mL (≈ 0.715 µM)
  MIC90: 0.5 µg/mL (≈ 1.43 µM)
[15]
  Activity: 100%
[16]
  Activity: 0%
[17]
  Activity: 22%
[18]
  Activity: 100%
[19]
  MIC50: ≥ 8 µg/mL
  MIC90: ≥ 8 µg/mL
[20]
  Activity: 75%
[2]
  MIC: ≥ 8 µg/mL
  MIC50: ≥ 8 µg/mL
  MIC90: ≥ 8 µg/mL
[21]
  MIC50: 4 µg/mL
  MIC90: 8 µg/mL
[22]
  MIC: 0.5 µg/mL
  MIC50: 0.25 µg/mL
  MIC90: 0.5 µg/mL
[23]
  MIC: 8 µg/mL
  MIC50: 8 µg/mL
  MIC90: 16 µg/mL
[24]
  MIC50: 0.5 µg/mL
  MIC90: 0.5 µg/mL
[3]
  Activity: 0%
[4]
  MIC50: 4 µg/mL (≈ 11.4 µM)
  MIC90: ≥ 8 µg/mL
